According to patent US8106055B2, “Substituted amide compounds” (Gruenenthal GmbH, priority 2007, dated 2012):

Assays:
[1] = target: T1, human bradykinin 1 receptor (B1R) (Homo sapiens, UniProt P46663); test: Functional investigation on the human bradykinin 1 receptor (B1R), Ca2+ FLIPR assay in CHO K1 hB1R cells; type: cell-based; settings: B1R antagonism human; test substance 10 μM; Ca2+ FLIPR, CHO K1 hB1R cells
T1 construct: expressed in transfected cells; host or cells: CHO K1 cells
T1 sequence (P46663 1-353): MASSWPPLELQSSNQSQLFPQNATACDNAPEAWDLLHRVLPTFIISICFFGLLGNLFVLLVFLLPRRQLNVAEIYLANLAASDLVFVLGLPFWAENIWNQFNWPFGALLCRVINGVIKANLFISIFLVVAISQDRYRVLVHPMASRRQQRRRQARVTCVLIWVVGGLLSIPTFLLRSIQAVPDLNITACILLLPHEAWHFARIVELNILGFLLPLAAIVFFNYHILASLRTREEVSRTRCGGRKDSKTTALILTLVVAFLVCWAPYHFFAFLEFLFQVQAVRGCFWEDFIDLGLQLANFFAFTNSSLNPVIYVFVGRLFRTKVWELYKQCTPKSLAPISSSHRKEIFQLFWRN
Outline: (§1)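 Stably transfected CHO K1 cells loaded with Fluo-4; FLIPR Ca2+ fluorescence peak (ex 488/em 540 nm). Compound added first (agonism vs Lys-Des-Arg9-bradykinin ≥50 nM human, Des-Arg9-bradykinin 10 μM rat), then after 10-20 min agonist at EC80; antagonism as % inhibition, IC50 from concentration series, n=2-3, N≥2.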

[2] = target: T2, bradykinin 1 receptor (B1R) of the rat (Rattus norvegicus, UniProt P97583); test: Functional investigation on the rat bradykinin 1 receptor (B1R), Ca2+ FLIPR assay in CHO K1 rB1R cells; type: cell-based; settings: B1R antagonism rat; test substance 10 μM; Ca2+ FLIPR, CHO K1 rB1R cells
T2 construct: expressed in transfected cells; host or cells: CHO K1 cells
T2 sequence (P97583 1-337): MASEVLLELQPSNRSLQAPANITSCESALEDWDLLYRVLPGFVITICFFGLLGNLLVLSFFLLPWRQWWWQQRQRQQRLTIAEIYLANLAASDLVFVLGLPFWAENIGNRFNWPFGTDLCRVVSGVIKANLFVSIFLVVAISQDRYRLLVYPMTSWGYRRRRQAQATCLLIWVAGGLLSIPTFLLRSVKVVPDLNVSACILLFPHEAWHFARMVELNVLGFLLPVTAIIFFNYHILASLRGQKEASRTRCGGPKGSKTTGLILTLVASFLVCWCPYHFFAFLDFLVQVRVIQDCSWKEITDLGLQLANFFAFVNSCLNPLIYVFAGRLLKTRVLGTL
Outline: as §1

| SMILES | B1R Ant. h [10 μM] % Inhibition [1] [%] | B1R Ant. r [10 μM] % Inhibition [2] [%] |
| --- | --- | --- |
| CN(C)C(c1ccccc1)C1CCC(CNC(=O)COCC2CCCN(S(=O)(=O)c3ccccc3)C2)CC1 (stereo not drawn) [Example 129, N((4((dimethylamino)(phenyl)methyl)cyclohexyl)methyl)-2-((1-(phenylsulfonyl)piperidin-3-yl)methoxy)acetamide] | −5 | 0 |
| Cc1ccc(S(=O)(=O)N(C)CCOCC(=O)NC2CCC(C(c3cccs3)N(C)C)CC2)cc1 (stereo not drawn) [Example 168, N-(4-((dimethylamino) (thiophen-2-yl)methyl)cyclohexyl)-2-(2-(N,4-dimethylphenylsulfamido)ethoxy)acetamide] | −5 | 16 |
| COc1cc(C)c(S(=O)(=O)N(CCOCC(=O)NCC2CCC(C(c3ccccc3)N(C)C)CC2)Cc2ccccc2)c(C)c1C (stereo not drawn) [Example 201] | 76 | 7 |
| CN(C)C(c1cccc(F)c1)C1CCC(CCNC(=O)COCC2CCCN2S(=O)(=O)c2ccc(Cl)c(Cl)c2)CC1 (stereo not drawn) [Example 202] | 48 | −15 |
| COc1ccc(S(=O)(=O)N2CCCCC2CCOCC(=O)NCC2CCC(C(c3cccc(F)c3)N(C)C)CC2)cc1 (stereo not drawn) [Example 203] | 42 | 55 |
| CN(C)C(c1cccc(F)c1)C1CCC(NC(=O)COC2CCN(S(=O)(=O)c3ccc(Cl)cc3)C2)CC1 (stereo not drawn) [Example 204] | 2 | −13 |
| CN(C)C(c1cccc(F)c1)C1CCC(NC(=O)COCCN(C)S(=O)(=O)c2ccc(F)cc2)CC1 (stereo not drawn) [Example 205] | −11 | 5 |
| COc1ccc(S(=O)(=O)N(C)CCOCC(=O)NC2CCC(C(c3cccs3)N(C)C)CC2)cc1OC (stereo not drawn) [Example 206] | −5 | 20 |
| CN(C)C(c1ccc(Cl)cc1)C1CCC(CNC(=O)COCCN(C)S(=O)(=O)c2c(Cl)cccc2Cl)CC1 (stereo not drawn) [Example 207] | 104 | 52 |
| CN(C)C(c1cccc(F)c1)C1CCC(NC(=O)COCCN(C)S(=O)(=O)c2c(Cl)cc(Cl)cc2Cl)CC1 (stereo not drawn) [Example 208] | 89 | 25 |
| CCN(CCOCC(=O)NCCC1CCC(C(c2cccc(F)c2)N(C)C)CC1)S(=O)(=O)c1c(C)cc(OC)c(C)c1C (stereo not drawn) [Example 209] | 64 | 60 |
| CN(C)C(c1cccc(F)c1)C1CCC(NC(=O)COCC2CCCN2S(=O)(=O)c2ccc(Cl)c(Cl)c2)CC1 (stereo not drawn) [Example 211] | 33 | 10 |
| COc1ccc(S(=O)(=O)N2CCCCC2CCOCC(=O)NC2CCC(C(c3ccc(F)cc3)N(C)C)CC2)cc1 (stereo not drawn) [Example 212] | 49 | 41 |
| COc1ccc(S(=O)(=O)N2CCCCC2CCOCC(=O)NCCC2CCC(C(c3cccc(F)c3)N(C)C)CC2)cc1 (stereo not drawn) [Example 213] | 78 | 49 |
| CN(C)C(c1cccs1)C1CCC(CCNC(=O)COC2CCCCC2N(C)S(=O)(=O)c2ccc(Cl)c(Cl)c2)CC1 (stereo not drawn) [Example 214] | −2 | 19 |
| CN(C)C(c1cccc(F)c1)C1CCC(CCNC(=O)COCCN(C)S(=O)(=O)c2ccc(OC(F)(F)F)cc2)CC1 (stereo not drawn) [Example 215] | 1 | 22 |
| Cc1ccc(S(=O)(=O)N2CCC(OCC(=O)NCCC3CCC(C(c4cccc(F)c4)N(C)C)CC3)C2)cc1 (stereo not drawn) [Example 216] | 20 | 12 |
| CN(C)C(c1cccc(F)c1)C1CCC(NC(=O)COCCN(C)S(=O)(=O)c2ccc(Cl)cc2Cl)CC1 (stereo not drawn) [Example 217] | 85 | 47 |

| SMILES | B1R Ant. h [10 μM] % Inhibition [1] [%] | B1R Ant. r [10 μM] % Inhibition [2] [%] |
| --- | --- | --- |
| CN(C)C(c1cccc(F)c1)C1CCC(CCNC(=O)COCCN(C)S(=O)(=O)c2ccc(F)cc2)CC1 (stereo not drawn) [Example 218] | 7 | 28 |
| CN(C)C(c1ccccc1)C1CCC(CNC(=O)COC2CCN(S(=O)(=O)c3ccc(F)cc3)C2)CC1 (stereo not drawn) [Example 219] | −1 | 14 |
| CN(C)C(c1cccc(F)c1)C1CCC(CNC(=O)COCC2CCCN(S(=O)(=O)c3ccccc3)C2)CC1 (stereo not drawn) [Example 220] | 6 | 7 |
| COc1cc(C)c(S(=O)(=O)N2CCCC(OCC(=O)NCCC3CCC(C(c4cccc(F)c4)N(C)C)CC3)C2)c(C)c1C (stereo not drawn) [Example 221] | 21 | 17 |
| COc1cc(C)c(S(=O)(=O)N2CCN(CCOCC(=O)NC3CCC(C(c4ccc(F)cc4)N(C)C)CC3)CC2)c(C)c1C (stereo not drawn) [Example 222] | 54 | 10 |
| COc1cc(C)c(S(=O)(=O)N2CCN(CCOCC(=O)NCC3CCC(C(c4cccc(F)c4)N(C)C)CC3)CC2)c(C)c1C (stereo not drawn) [Example 223] | 52 | −5 |
| COc1ccc(S(=O)(=O)N2CCCC2COCC(=O)NCCC2CCC(C(c3cccc(F)c3)N(C)C)CC2)cc1 (stereo not drawn) [Example 224] | 34 | 47 |
| CN(C)C(c1cccc(F)c1)C1CCC(CNC(=O)COC2CCN(S(=O)(=O)c3ccc(Cl)cc3Cl)C2)CC1 (stereo not drawn) [Example 225] | 51 | 17 |
| Cc1ccc(S(=O)(=O)N(C)CCOCC(=O)NC2CCC(C(c3cccc(F)c3)N(C)C)CC2)cc1 (stereo not drawn) [Example 226] | −4 | 24 |
| Cc1ccc(S(=O)(=O)N(C)CCOCC(=O)NCC2CCC(C(c3cccc(F)c3)N(C)C)CC2)cc1 (stereo not drawn) [Example 227] | 6 | 12 |
| COc1cc(C)c(S(=O)(=O)N(C)CCOCC(=O)NC2CCC(C(c3cccc(F)c3)N(C)C)CC2)c(C)c1 (stereo not drawn) [Example 228] | 104 | 99 |
| CN(C)C(c1cccc(F)c1)C1CCC(CNC(=O)COCCN(C)S(=O)(=O)c2ccc(F)cc2)CC1 (stereo not drawn) [Example 229] | 7 | 8 |
| CN(C)C(c1cccs1)C1CCC(CCNC(=O)COC2CCN(S(=O)(=O)c3ccccc3)CC2)CC1 (stereo not drawn) [Example 230] | −16 | −1 |
| CCN(CCOCC(=O)NCC1CCC(C(c2ccccc2)N(C)C)CC1)S(=O)(=O)c1c(C)cc(OC)c(C)c1C (stereo not drawn) [Example 231] | 9 | 29 |
| COc1cc(C)c(S(=O)(=O)N2CCC(OCC(=O)NCCC3CCC(C(c4cccc(F)c4)N(C)C)CC3)CC2)c(C)c1C (stereo not drawn) [Example 232] | 17 | 5 |
| COc1ccc(S(=O)(=O)N2Cc3ccccc3CC2COCC(=O)NC2CCC(C(c3ccc(F)cc3)N(C)C)CC2)cc1 (stereo not drawn) [Example 234] | 50 | 20 |
| Cc1cc(C)c(S(=O)(=O)N(C)CCOCC(=O)NC2CCC(C(c3cccs3)N(C)C)CC2)c(C)c1 (stereo not drawn) [Example 235] | 31 | −8 |
| COc1cc(C)c(S(=O)(=O)N(C)CCOCC(=O)NC2CCC(C(c3ccccc3)N(C)C)CC2)c(C)c1 (stereo not drawn) [Example 239] | 104 | 97 |
